{
  "source": "paper PMC8782015",
  "about": "“Coumarin Derivatives Exert Anti-Lung Cancer Activity by Inhibition of Epithelial–Mesenchymal Transition and Migration in A549 Cells” (Pharmaceuticals, 2022)",
  "key": {"A549 cells [1]": {"test_system": "A549 cells", "assay": "MTT cell viability assay on A549 cells", "assay_type": "cell-based, human", "details": "24 h; for cytotoxicity (A549 cells viability, in words): single concentration 12 µM", "procedure": "All the synthetic coumarins (7, 8a–f, 9a–g, 10, 11, 12a–c, 13a–c, 14–17) were first screened for their in vitro cytotoxic activity at a single concentration (12 µM) against NSCLC cell line (human lung adenocarcinoma A549) for 24 h, using the well-established 3-(4,5-dimethylthiazol-2-yl)-2,5-diphenyltetrazolium bromide (MTT) assay.\nThe effect of coumarin derivatives on cell viability was evaluated by the MTT assay at a single dose according to the NCI testing protocol or at different concentrations for IC50 determination. Coumarin derivatives were dissolved in dimethyl sulfoxide (DMSO) and then diluted with DMEM. Briefly, cells were plated in 96-well plates (2 × 10^4/well) and each coumarin derivative at 12 µM was added to the culture medium, and the cell cultures were continued for 24 h. Cisplatin (2.6 µM) was used as a reference drug. Thereafter, the medium was replaced with fresh DMEM containing 5 mg/mL MTT. Following an incubation period (4 h) in a humidified CO2 incubator at 37 °C and 5% CO2, the supernatant was removed, and dimethyl sulfoxide solution (DMSO, […]) was added to each cultured plate. After incubation at room temperature for 15 min, the absorbance of the solubilized MTT formazan product was spectrophotometrically measured at 540 nm. Three individual wells were assayed for each treatment, and the percentage viability relative to the control sample was determined as (absorbance of treated cells/absorbance of untreated cells) × 100%. Only the compound that reduced the viability by more than half the value of the control cells were screened in a range of concentration (10^−8 to 10^−3 M) with the A549, H2170, and NHI-3T3 cell lines. The concentration of 9f compound that reduced the viable cell number by 50% (CC50) was determined using a non-linear regression approach, and the mean value of CC50 for each cell type was calculated from triplicate.\nFigure 1 Effect of synthetic coumarin derivatives on cell viability. The viability of A549 cells was determined using the MTT assay after exposure at a single concentration (12 µM) of the compounds or cisplatin (2.6 µM) for 24 h. The percentage of inhibition was calculated considering the cells treated with medium (DMEM), which was considered as 100% of cell viability (dotted line). Bars represent the mean ± S.D. from three independent experiments.\n1.1. In vitro cytotoxicity assay of 9f compound on A549, H2170 and NIH3T3 cells\nIn order to determine the cytotoxic effect of 9f compound, the tumor cell lines A549 and H2170, and non-tumor cell line NHI-3T3 (1×10^5 per well) were seeded in the presence of the 9f compound concentration (1×10-3 to 1×10^-8 M) in 96-well microliter culture plate in a humidified CO2 (5%) incubator at 37 °C for 24h. Cell viabilities were measured using MTT assay as described in Materials and Methods Section. Three individual wells were assayed for each treatment and the percentage viability relative to the control sample was determined as (absorbance of treated cells/absorbance of untreated cells)×100%. A nonlinear regression analysis calculated using Prism 7.0 software (Graph- […]\n25.8 ± 1.7 µM to NHI-3T3 cells (Figure S1).\nFigure S1. Cytotoxicity assay (CC50) of increasing concentration of 9f compound on tumor cell lines (A549 and H2170) and non-tumor cell line (NHI-3T3) after 24 hours using MTT assay. All data were reported as the mean ± S.D. CC50 (M) values were calculated from the dose response curve using Prim 7 software.\n(1 picture or pasted object on this page, not shown here)"}, "H2170 cells": {"test_system": "H2170 cells", "assay": "MTT cell viability assay (CC50) on H2170 cells", "assay_type": "cell-based", "details": "Homo sapiens, NCI-H2170, 24 h, mean ± S.D., read-out: CC50 (concentration that reduces the viable cell number by 50%)", "excerpt": "(§1) Among these two compounds, 9f was the most promising, reducing the A549 cells viability to less than 20%. […] Distinct explanations might be used to sustain this fact, including biochemical and metabolic changes between cell lines. While normal cells follow a set of organized metabolic programs, cancer cells show intrinsic or acquired resistance to apoptosis and also a metabolic reprogramming in order to meet the increased energy demands.\n(§2) The effect of coumarin derivatives on cell viability was evaluated by the MTT assay at a single dose according to the NCI testing protocol or at different concentrations for IC50 determination. […] After incubation at room temperature for 15 min, the absorbance of the solubilized MTT formazan product was spectrophotometrically measured at 540 nm. Three individual wells were assayed for each treatment, and the percentage viability relative to the control sample was determined as (absorbance of treated cells/absorbance of untreated cells) × 100%. […]\nIn order to determine the cytotoxic effect of 9f compound, the tumor cell lines A549 and H2170, and non-tumor cell line NHI-3T3 (1×10^5 per well) were seeded in the presence of the 9f compound concentration (1×10-3 to 1×10^-8 M) in 96-well microliter culture plate in a humidified CO2 (5%) incubator at 37 °C for 24h. Cell viabilities were measured using MTT assay as described in Materials and Methods Section. […]"}, "[2]": {"assay": "MTT cell viability assay (CC50) on NIH-3T3 cells", "assay_type": "cell-based", "details": "mouse, NIH-3T3 fibroblast cells (non-tumour), NIH-3T3 non-cancer cells, mean ± S.D., read-out: CC50 (concentration that reduces the viable cell number by 50%)", "excerpt": "as §1\nA549, H2170, and normal mouse fibroblast (NIH-3T3) cell lines were obtained from the Rio de Janeiro Cell Bank (BCRJ). […]\nas §2\nFigure S1. […] All data were reported as the mean ± S.D. CC50 (M) values were calculated from the dose response curve using Prim 7 software. […]"}, "[3]": {"test_system": "IL-1β-stimulated A549 cells", "assay": "IL-1β-induced EMT: cell morphology and F-actin (FITC-phalloidin) staining", "assay_type": "cell-based, human", "details": "7 µM, 1 ng/mL IL-1β, 24 h", "procedure": "(§3) For induction of the EMT process, A549 cells (1 × 10^5 per well) were seeded in 24-well culture plates and treated with 1 ng/mL IL-1β (Peprotech, Rocky Hill, NJ, USA) for 24 h. In the unstimulated cells, DMEM medium was added. Then, the morphological alteration of cells was observed under a microscope. This protocol for EMT induction is as reported in the previous literature. To evaluate the effects of coumarin derivative with respect to EMT induced by IL-1β, cells were pretreated with compound 9f at 7 µM, being this treatment also maintained during stimulation with IL-1β for 24 h.\nAfter 24 h, cells were fixed for 15 min at 4 °C with 4% paraformaldehyde in PBS. […] Cell morphology was determined using an inverted epifluorescence microscope (Nikon Eclipse 50i). Fluorescence quantification was done using ImageJ 1.47 software (NIH, Bethesda, MD, USA). Images were analyzed through the “Measure” menu, which allowed analyzing the fluorescence intensity signal per cell from original photomicrographs.\nFigure 2 Compound 9f inhibited IL-1β-induced EMT in vitro. […] Cells were photographed using phase-contrast microscopy (A–D) or fluorescence microscopy (E–H). […] Actin (green) was detected via immunofluorescence in formaldehyde-fixed cells with FITC-conjugated phalloidin (1:100). […] Magnification ×100 (insert, magnification ×200) for phase-contrast microscope and ×400 for fluorescence microscope."}, "vimentin in A549 cells": {"test_system": "vimentin in A549 cells", "assay": "Vimentin expression by immunofluorescence and flow cytometry", "assay_type": "cell-based, human", "details": "7 µM, 24 h", "procedure": "as §3\nIn another set of experiments, the analysis for vimentin, a well-recognized marker for its selective expression and specific role in the mesenchymal state, was performed. […] Stained cells were analyzed by a flow cytometer (FACSCanto II, Becton Dickinson, San Jose, CA, USA) accompanied with the BD FACSDIVA™ software for data analysis. The cell-associated fluorescence of 5000 cells per sample was measured as mean fluorescence intensity (MFI) in the FL1 channel. The MFI values were corrected for unspecific staining by subtracting the fluorescence of cells unstained (negative control).\nFigure 3 Compound 9f downregulates the expression of mesenchymal cell marker vimentin in IL-1β-induced EMT. […] The mesenchymal markers vimentin was detected by immunofluorescence. […] Magnification ×400 for fluorescence microscope. […]"}, "A549 cells [4]": {"test_system": "A549 cells", "assay": "In vitro scratch wound healing assay", "assay_type": "cell-based, human", "details": "7 µM, 24 h, IL-1β-stimulated A549 cells", "procedure": "To evaluate the effect of 9f on epithelial motility, we performed the scratch assay as described by Cardoso et al.. Cells were maintained in 24-well plates until they reached 90% confluency. Thereafter, a vertical stripe on the cell monolayer was made using a sterile pipette (200 μL) tip. The wells were washed with PBS to remove dead cells and debris, and then, 9f was added at a concentration of 7 µM. As a control, the cells were treated with cell culture medium. Photographs were captured by a digital camera connected to an inverted microscope (Olympus IX70) at 0 and 24 h after scratch. The migration gap area of the cells was measured by ImageJ software (https://imagej.nih.gov/ij/; accessed on 24 November 2020, Center for Information Technology, National Institute of Health, Bethesda, […], USA). Each measurement was repeated three times.\nFigure 4 The effect of 9f on the migration of A549 cells assayed by the wound-healing assay. Cells were treated with 9f at 7 µM, and images were captured to calculate the scratch closure. In (A), representative photomicrography images showing the cell migration toward the cell-free area after treatment with DMEM (control) or 9f and after 24 h. […] Values represent mean ± S.D. from three independent experiments. (+++) p < 0.001 compared with respective DMEM-treated cells and (***) p < 0.001 compared with IL-1β-stimulated cell vehicle-treated cells."}, "A549 cells [5]": {"test_system": "A549 cells", "details": "cited from earlier work"}},
  "data": [
    {"smiles": "COc1ccccc1-c1ccc2ccc(=O)oc2c1", "note": "[Compound 8b]", "values": [
      {"measurement": "cytotoxicity (A549 cells viability, in words)", "setting": "A549 cells [1]", "value": "little or no cytotoxicity"}
    ]},
    {"smiles": "O=c1ccc2ccc(Cc3ccccc3)cc2o1", "note": "[Compound 15]", "values": [
      {"measurement": "cytotoxicity (A549 cells viability, in words)", "setting": "A549 cells [1]", "value": "little or no cytotoxicity"}
    ]},
    {"smiles": "O=c1ccc2cc(-c3ccc(Cl)c(Cl)c3)ccc2o1", "note": "[Compound 9f]", "values": [
      {"measurement": "CC50", "setting": "H2170 cells", "value": "3.3 ± 0.5", "unit": "µM"},
      {"measurement": "CC50 at 24 h", "setting": "[2]", "value": 25.8, "unit": "µM"},
      {"measurement": "CC50", "setting": "A549 cells [1]; Homo sapiens, A549 cells, mean ± S.D., read-out: CC50 (concentration that reduces the viable cell number by 50%)", "value": "7.1 ± 0.8", "unit": "µM"},
      {"measurement": "actin cytoskeleton reorganization", "setting": "[3]; FITC-labeled phalloidin", "value": "attenuated the changes in the actin cytoskeleton reorganization"},
      {"measurement": "morphological changes (mesenchymal characteristics) induced by IL-1β", "setting": "[3]; phase-contrast microscopy", "value": "impairment in changes in its mesenchymal characteristics induced by IL-1β"},
      {"measurement": "expression of mesenchymal marker vimentin", "setting": "vimentin in A549 cells; IL-1β-stimulated (1 ng/mL) A549 cells", "value": "significantly diminished"},
      {"measurement": "levels of vimentin expression", "setting": "vimentin in A549 cells; cells unstimulated with IL-1β", "value": "did not change"},
      {"measurement": "migration (wound closure)", "setting": "A549 cells [4]", "value": "significantly reduced"}
    ]},
    {"smiles": "CC(=O)Oc1ccc2cc(-c3ccc(S(C)(=O)=O)cc3)c(=O)oc2c1OC(C)=O", "note": "[8-(acetyloxy)-3-(4-methanesulfonylphenyl)-2-oxo-2H-chromen-7-yl acetate]", "values": [
      {"measurement": "IC50", "setting": "A549 cells [5]", "value": 24.2, "unit": "µM"}
    ]},
    {"smiles": "O=c1ccc2ccc(CCc3ccccc3)cc2o1", "note": "[Compound 16]", "values": [
      {"measurement": "cytotoxicity (A549 cells viability, in words)", "setting": "A549 cells [1]", "value": "little or no cytotoxicity"}
    ]},
    {"smiles": "CC(C)=CCC/C(C)=C/CC/C(C)=C/COc1ccc2ccc(=O)oc2c1", "note": "[umbelliprenin]", "values": [
      {"measurement": "IC50", "setting": "A549 cells [5]", "value": "52 ± 1.97", "unit": "µM"}
    ]},
    {"smiles": "O=c1ccc2ccc(C#CCO)cc2o1", "note": "[Compound 12c]", "values": [
      {"measurement": "cytotoxicity (A549 cells viability, in words)", "setting": "A549 cells [1]", "value": "little or no cytotoxicity"}
    ]},
    {"smiles": "O=c1ccc2cc(Cc3ccccc3)ccc2o1", "note": "[Compound 14]", "values": [
      {"measurement": "cytotoxicity (A549 cells viability, in words)", "setting": "A549 cells [1]", "value": "little or no cytotoxicity"}
    ]},
    {"smiles": "COc1ccccc1-c1ccc2oc(=O)ccc2c1", "note": "[Compound 9c]", "values": [
      {"measurement": "cytotoxicity (A549 cells viability, in words)", "setting": "A549 cells [1]", "value": "little or no cytotoxicity"}
    ]},
    {"smiles": "O=c1ccc2cc(C#CCCCc3ccccc3)ccc2o1", "note": "[Compound 13b]", "values": [
      {"measurement": "cytotoxicity (A549 cells viability, in words)", "setting": "A549 cells [1]", "value": "little or no cytotoxicity"}
    ]}
  ]
}
